Measurements as given in PMC8174488, “4-Arylthiosemicarbazide derivatives as a new class of tyrosinase inhibitors and anti-Toxoplasma gondii agents” (Journal of Enzyme Inhibition and Medicinal Chemistry, 2021).
Values joined by “and” are separate entries in the source; they are usually repeats but may differ in a detail not shown here. Equal entries are not always repeated. Where two headings read alike, the source gives them in different places.

How the values were obtained:
[1] = test system: T. gondii tachyzoites RH-GFP strain; assay: Influence of compounds during Toxoplasma growth, assay B (compounds present 24 h after penetration); type: cell-based, Toxoplasma gondii; settings: 3 h infection without compound, then compound at IC50Tg for 24 h, Hs27 cells, vs untreated cells
Tyr from mushrooms [2] = biological target: T1, Tyr from mushrooms (Agaricus bisporus, UniProt C7FF04); assay: Kinetic analysis of the inhibition of tyrosinase (Lineweaver-Burk, Dixon, [L-tyrosine]/V vs [I] plots); type: biochemical, mushroom; settings: Lineweaver–Burk plots
Method: Therefore, these compounds were subsequently subjected to detailed kinetic studies to evaluate inhibition parameters. […] Dixon plots (Figure 7) were used in evaluating the KI values, while the plots of [L-tyrosine]/V vs. [I] (Figure 8), were employed to determine IC50Tyr[50]. [I] represents the concentration of the inhibitor. Rates were monitored spectrophotometrically by detecting changes in absorbance at 492 nm.
Solutions containing 80 µL of 0.625, 1.25, or 2.5 mM L-tyrosine and 50 µL of 20, 100, or 200 µM inhibitor were added to a 96-well plate. Then, solution containing 70 µL of Tyr (10 U) was added and the initial rate of dopachrome formation was determined through detecting the increase in absorbance at the wavelength of 492 nm (Δ492/min). […] In order to determine the inhibition constants KI the Dixon plots were constructed, whereas the plots of [L-tyrosine]/V vs. inhibitor concentration [I] were used for IC50Tyr evaluation. The results from three experiments are shown.

L929 cells [3] = assay: Cell viability assay (MTT, ISO 10993-5) on L929 mouse fibroblasts; type: cell-based; settings: 24 h, concentration for 30% inhibition of cell proliferation
Excerpt: First, we evaluated the cytotoxic effects of 1b–9b, which is necessary prior to measuring anti-Toxoplasma and Tyr inhibition in order to exclude cytotoxic compounds. […] Cytotoxicity was estimated using mouse fibroblast (L929) cells line via MTT assay, according to the international standards ISO 10993–5:2009(E). […] Therefore, the obtained results were expressed as CC30, which was defined as the highest concentration of the compound that causes 30% damage of cells and was considered according to ISO as non-toxic.
The L929 mouse fibroblast (ATTC® CCL-1™, Manassas, VA) was routinely maintained in RPMI 1640 media (R8758, Sigma-Aldrich, Suffolk, UK), supplemented with 10% foetal bovine serum (Foetal Bovine Serum, ATCC® 30–2020™), 100 I.U./mL penicillin and 100 µg/mL streptomycin (Penicillin-Streptomycin Solution ATCC® 30–2300™). Cells were trypsinised (Trypsin-EDTA Solution, 1X ATCC® 30–2101™) twice a week and seeded at a density of 1 × 10^6 per T25 cell culture flask and incubated at 37 °C and 10% CO2 to achieve a confluent monolayer.
(§1) Cell viability assay was performed according to international standards (ISO 10993–5:2009(E)), using tetrazolium salt (MTT, Sigma-Aldrich) and mouse fibroblasts L929 cells. Culture medium RPMI 1640, without phenol red (Biowest, Nuaille, France) supplemented with 10% FBS, 2 mM L-glutamine (Sigma-Aldrich), 100 I.U./mL penicillin, 100 µg/mL streptomycin were used. Briefly, 1 × 10^4/well of L929 cells were placed in 96-well plates and incubated for 24 h at 37 °C and 10% CO2. Afterwards, the old culture medium was replaced with 100 µL of the compound, drug or inhibitor, diluted in culture medium, and the cells treated for 24 h. Additionally, cells were treated with 0.03–4.0% concentration of DMSO as the solvent (data not shown). Then, 50 µL of 1 mg/mL of MTT solution in RPMI 1640 without phenol red was added to each well and incubated for 2 h at 37 °C and 10% CO2. Next, cell culture medium was aspirated carefully and 150 µL of DMSO was added to each well, and the plates were gently mixed. Then, 25 µL 0.1 M glycine buffer (pH 10.5) (Sigma-Aldrich) was added. The optical density at 570 nm using a multi-mode microplate reader SpectraMax® i3 (Syngen, Taipei City, Taiwan) was recorded. The results were expressed as a percentage of viability compared to untreated cells. All experiments were performed in triplicate. Cytotoxicity assay using human fibroblast Hs27 cells was also performed as described above (included in Supplementary Material).

Tyr from mushrooms [4] = biological target: T1, Tyr from mushrooms; assay: Inhibition of tyrosinase activity assay (screening at 25 µM); type: biochemical, mushroom; settings: read-out: Tyrosinase inhibition, at 25 µM compound, L-tyrosine substrate, 10 U Tyr, 30 min
Method: In our study, we used Tyr from mushrooms (T3824, Sigma) for all experiments. All compound dilutions, L-tyrosine a Tyr substrate, and Tyr were prepared in 50 mM phosphate buffer (pH 6.5). […] 100% Tyr activity we used for the sample without addition compound/inhibitor. […] The average results from three experiments are shown.

Hs27 cell line = assay: Cytotoxicity assay (MTT) on human fibroblast Hs27 cells; type: cell-based
Method: as §1

[5] = test system: T. gondii tachyzoites RH-GFP strain; assay: Influence of compounds during Toxoplasma growth, assay A (compounds present only during penetration); type: cell-based, Toxoplasma gondii; settings: compound at IC50Tg for 3 h during penetration, then 24 h free medium, Hs27 cells, vs untreated cells
T. gondii RH strain [6] = assay: Antiparasitic assay: T. gondii RH proliferation in Hs27 cells, [3H]uracil incorporation; type: cell-based, Toxoplasma gondii; settings: for IC50: Toxoplasma gondii, HS27; for SR (selectivity ratio): ratio of CC30 (L929) to IC50Tg
L929 cells [7] = settings: cited from earlier work
T. gondii RH strain [8] = test system: T. gondii RH strain; parameters: method as in PMID 30744161, PMID 31022878; settings: 50% inhibition of T. gondii proliferation in vitro; reported previously, listed for comparison; cited from earlier work

T1 sequence (G1K3P4 entry or part of it): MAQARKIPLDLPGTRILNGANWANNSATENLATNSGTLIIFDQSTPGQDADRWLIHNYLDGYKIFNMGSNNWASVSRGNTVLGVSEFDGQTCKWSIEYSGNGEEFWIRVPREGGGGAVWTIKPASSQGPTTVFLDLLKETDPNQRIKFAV
T1 sequence (C7FF04 1-392): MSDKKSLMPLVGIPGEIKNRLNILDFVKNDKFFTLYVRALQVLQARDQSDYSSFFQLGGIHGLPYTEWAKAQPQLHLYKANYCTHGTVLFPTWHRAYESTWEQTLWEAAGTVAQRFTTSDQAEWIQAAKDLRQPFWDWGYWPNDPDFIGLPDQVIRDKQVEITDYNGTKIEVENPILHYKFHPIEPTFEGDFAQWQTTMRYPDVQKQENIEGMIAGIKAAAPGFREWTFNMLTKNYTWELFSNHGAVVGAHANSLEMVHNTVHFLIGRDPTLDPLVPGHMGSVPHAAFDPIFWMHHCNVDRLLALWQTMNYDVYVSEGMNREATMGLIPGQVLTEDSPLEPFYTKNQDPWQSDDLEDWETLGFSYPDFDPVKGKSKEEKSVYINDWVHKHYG

| Compound | CC30 (L929 cells [3]) | CC30 (Hs27 cell line; Hs27 cell line, MTT) | melting point | IC50 (T. gondii RH strain [6]) | SR (selectivity ratio) (T. gondii RH strain [6]) | CC30 (L929 cells [7]) | IC50 (T. gondii RH strain [8]) | CC30 (Hs27 cell line) | also measured |
| --- | --- | --- | --- | --- | --- | --- | --- | --- | --- |
| O=C(NNC(=S)Nc1ccc([N+](=O)[O-])cc1)C1CCCC1 [Compound 2b, 1-Cyclopentanoyl-4–(4-nitrophenyl)thiosemicarbazide] | 378.39 µM and 378.4 µM | 405.09 µM | 170 to 172 °C | 144 µM | 2.63 |  |  |  | number of tachyzoites per PV [1]: significant reduction; percentage of infected cells [1]: not observable; character of inhibition (Tyr from mushrooms [2]): mixed character of inhibition; inhibition at 25 µM (Tyr from mushrooms [4]): 45.6 ± 2.8%; number of infected cells (infection index) [5]: significant reduction; number of tachyzoites per PV [5]: significant reduction |
| Cc1nc[nH]c1C(=O)NNC(=S)Nc1ccccc1Br [Compound 4a] |  |  |  |  |  | 579.61 µM | 78.1 µM | 728.41 µM |  |
| Cc1nc[nH]c1C(=O)NNC(=S)Nc1cc(F)ccc1F [Compound 9a] |  |  |  |  |  | 509.11 µM | 172 µM | 612.48 µM |  |
| Cc1nc[nH]c1C(=O)NNC(=S)Nc1ccccc1I [Compound 5a] |  |  |  |  |  | 253.17 µM | 50.6 µM | 278.72 µM |  |
| O=C(NNC(=S)Nc1ccccc1Br)C1CCCC1 [Compound 4b, 4–(2-Bromophenyl)-1-cyclopentanoylthiosemicarbazide] | 806.60 µM | > 1000 µM | 179 to 181 °C | 218 µM | 3.70 |  |  |  |  |
| Cc1nc[nH]c1C(=O)NNC(=S)Nc1ccccc1Cl [Compound 3a] |  |  |  |  |  | 462.12 µM | 115 µM | 502.21 µM |  |
| O=C(NNC(=S)Nc1ccccc1Cl)C1CCCC1 [Compound 3b, 4–(2-Chlorophenyl)-1-cyclopentanoylthiosemicarbazide] | 554.73 µM | 512.31 µM | 178 to 180 °C | 368 µM | 1.51 |  |  |  |  |
| O=c1cc(CO)occ1O [Kojic acid (KA), Kojic acid, reference compound] | 1558.28 µM | > 2500 µM |  | 501 µM |  |  |  |  | number of tachyzoites per PV [1]: significant reduction; percentage of infected cells [1]: not observable; CC30 (L929 cells [3]; listed as KA): 1558.0 µM; number of tachyzoites per PV [5]: significant reduction |
| O=C(NNC(=S)Nc1cc(F)ccc1F)C1CCCC1 [Compound 9b, 1-Cyclopentanoyl-4–(2,5-difluorophenyl)thiosemicarbazide] | 860.66 µM | > 1000 µM | 178 to 180 °C | 321 µM | 2.68 |  |  |  |  |
| O=C(NNC(=S)Nc1cccc(I)c1)C1CCCC1 [Compound 6b, 1-Cyclopentanoyl-4–(3-iodophenyl)thiosemicarbazide] | 117.68 µM | 135.87 µM | 173 to 175 °C | 54.5 µM | 2.16 |  |  |  | number of tachyzoites per PV [1]: significant reduction; percentage of infected cells [1]: not observable; character of inhibition (Tyr from mushrooms [2]): mixed character of inhibition; inhibition at 25 µM (Tyr from mushrooms [4]): 43.9 ± 3.4%; number of infected cells (infection index) [5]: significant reduction; number of tachyzoites per PV [5]: significant reduction |
| Cc1nc[nH]c1C(=O)NNC(=S)Nc1cccc([N+](=O)[O-])c1 [Compound 1a] |  |  |  |  |  | 440.95 µM | 46.1 µM | 479.22 µM |  |
| O=C(NNC(=S)Nc1ccccc1I)C1CCCC1 [Compound 5b, 1-Cyclopentanoyl-4–(2-iodophenyl)thiosemicarbazide] | 333.25 µM | 369.69 µM | 182 to 184 °C | 128 µM | 2.60 |  |  |  |  |
| COc1ccccc1NC(=S)NNC(=O)c1[nH]cnc1C [Compound 7a] |  |  |  |  |  | 452.06 µM | 108 µM | 498.12 µM |  |
| CCc1nc(N)nc(N)c1-c1ccc(Cl)cc1 [Pyrimethamine (PYR), Pyrimethamine, reference compound] | 181.97 µM |  |  | 11.5 µM | 15.85 |  |  |  |  |
| Cc1ccc(NC(=S)NNC(=O)c2[nH]cnc2C)cc1 [Compound 8a] |  |  |  |  |  | 361.73 µM | 199 µM | 421.89 µM |  |
| COc1ccccc1NC(=S)NNC(=O)C1CCCC1 [Compound 7b, 1-Cyclopentanoyl-4–(2-methoxyphenyl)thiosemicarbazide] | 886.29 µM | > 1000 µM | 176 to 178 °C | 327 µM | 2.71 |  |  |  |  |
| O=C(NNC(=S)Nc1cccc([N+](=O)[O-])c1)C1CCCC1 [Compound 1b, 1-Cyclopentanoyl-4–(3-nitrophenyl)thiosemicarbazide] | 616.52 µM | 603.98 µM | 134 to 136 °C | 180 µM | 3.43 |  |  |  |  |
| Cc1ccc(NC(=S)NNC(=O)C2CCCC2)cc1 [Compound 8b, 1-Cyclopentanoyl-4–(4-methylphenyl)thiosemicarbazide] | 463.37 µM | 445.10 µM | 175 to 177 °C | 181 µM | 2.55 |  |  |  |  |
